Experimental data from US20050147989A1 (priority 2003, published 2005).

Target: association reaction between recombinantly prepared mouse PrP (amino acids 23-231) and PrP-Sc aggregates prepared from the brain tissue of CJD patients (UniProt P04156+P04925)
Format: binding, human PrP-Sc (CJD patients); mouse PrP
Settings: for influence on association of fluorescence-labeled recombinant PrP to prion aggregates: SIFT, 20 mM potassium phosphate buffer, pH 6.0, 0.1% Nonidet-P40

Row | SMILES | influence on association of fluorescence-labeled recombinant PrP to prion aggregates | number of bins per sector in two-dimensional histograms of the fluorescence intensity (FIG. 4, two-dimensional SIFT evaluation by sectors)
1 | CCCCCCCC/C=C\CCCCCCCC(=O)OC[C@H](COP(=O)(O)OCCN)OC(=O)CCCCCCC/C=C\CCCCCCCC [DOPE, dioleyl-L-phosphatidylethanolamine] | no influence on aggregation was found | –
2 | CCCCCCCC/C=C\CCCCCCCCOCC(C[N+](C)(C)CCNC(=O)C(CCCNCCCN)NCCCN)OCCCCCCCC/C=C\CCCCCCCC.O=C([O-])C(F)(F)F (stereo not drawn) [DOSPA, 2,3-dioleyloxy-N-[2-(sperminecarboxamido)ethyl]-N,N-dimethyl-1-propanaminium trifluoroacetate] | inhibits the association of fluorescence-labeled recombinant PrP to prion aggregates at low micromolar concentrations | number of bins is decreased in sectors 1 to 9
